Measured values published in patent US11985977B2, “Use of composition as a growth promotant for plants” (UENME Global Pty LTD, priority 2018, dated 2024).

How the values were obtained:
[1] = system: avocado (Persea americana); assay: Avocado orchard soil spray trial (Example 1); format: in vivo
Experimental: In an avocado (Persea americana) orchard in Queensland, an area of the orchard was selected with poor tree health.
TMT supplied in a 15% aqueous solution was diluted in collected rainwater at 1 in 400, namely in a 0.0375% w/v aqueous solution, was applied with a fire-fighting pump and sprayed to the soil only beneath two trees. This spraying mimicked a tree sprinkler application and was applied as twenty litres per tree.

[2] = system: Rhodes grass; assay: Rhodes grass pasture dieback trial (Example 2); format: in vivo; conditions: 0.03% w/v applied 27 Jun. 2017; sample taken 8 Aug., kept in 10 ml rainwater, observed by 28 Aug. 2017; no change on untreated control
Experimental: On a property near Gin Gin, Queensland a pasture area of Rhodes grass was suffering from “pasture dieback”.
On 27 Jun. 2017 TMT supplied in a 15% aqueous solution diluted in rainwater at 1 in 500 (10 ml/5 L), namely in a 0.03% w/v aqueous solution was applied to a portion of that pasture area hereinafter referred to as the “treated grass”.
On 8 Aug. 2017 grass samples were taken from the treated grass (as a test sample) and from the surrounding untreated grass (as a control sample), and each of these grass samples were placed in separate open containers containing 10 ml of rainwater.

[3] = system: native bloodwood (Eucalyptus) trees; assay: Bloodwood trees, bark and soil drench (Example 3); format: in vivo; conditions: 0.03% w/v, three applications drenching bark and surrounding soil; trees appeared to be dying
Experimental: On 10 Apr. 2017 TMT supplied in a 15% aqueous solution diluted in rainwater at 1 in 500 (10 ml/5 L), namely in 0.03% w/v aqueous solution was first applied by drenching the bark and surrounding soil for each of the three.
Second and third similar applications of a 0.03% w/v TMT aqueous solution were made to the three trees on 3 June and 27 June respectively.

[4] = Growth stimulation by TMT mixed with liquid humate solution and powdered zeolite; format: in vivo; conditions: TMT mixed with a liquid humate solution containing fine powdered zeolite (<40 u)
[5] = system: Phytophthora; assay: Laboratory study on Phytophthora in avocado soil (Example 4); format: cell-based
Experimental: Laboratory study on Phytophthora (30 Sep. 2017 onwards to August 2018)
Crop avocado soil with Phytophthora.
Treatment TMT supplied in a 15% aqueous solution diluted at 1:500 (10 ml/5 L)

[6] = system: Phellinus; assay: Similar laboratory study on Phellinus from avocado and Eucalyptus; format: cell-based; conditions: similar TMT aqueous solutions; pathogens found on avocado and Eucalyptus
[7] = system: Pithium; assay: Similar laboratory study on Pithium from avocado and Eucalyptus; format: cell-based; conditions: similar TMT aqueous solutions; pathogens found on avocado and Eucalyptus
[8] = system: fungal pathogens Phellinus and Phytophthora; assay: Mango orchard foliar and stem spray, fungal pathogens (Example 5); format: in vivo; conditions: 0.03% w/v, foliar and stem spray 2 litre/tree, once, twice or three times two weeks apart; three mango trees
Experimental: TMT supplied in a 15% aqueous solution diluted in rainwater at 1 in 500 (10 ml/5 L), namely in 0.03% w/v aqueous solution was used. These three trees were foliar and stem sprayed (2 litre/tree each time) with the solution, once, twice or three times some two weeks apart. The fungal pathogen was killed. The growth response was extraordinary, but in order of the number of sprays. Leaves in both number and size followed suit as did flower spikes and fruit set. Fruit harvested was 10% greater in mass for each additional spray.

[9] = system: mango (Mangifera indica); assay: Mango orchard foliar and stem spray, growth and fruit (Example 5); format: in vivo
Experimental: TMT supplied in a 15% aqueous solution diluted in rainwater at 1 in 500 (10 ml/5 L), namely in 0.03% w/v aqueous solution was used. These three trees were foliar and stem sprayed (2 litre/tree each time) with the solution, once, twice or three times some two weeks apart.

[10] = system: mango trees (cv Kensington Pride); assay: Second mango trial, fruit and tree health (Example 6); format: in vivo, Mangifera indica
[11] = system: Phellinus (fungal pathogen); assay: Second mango trial, fungal pathogen (Example 6); format: in vivo; conditions: spraying as in Example 5; Phellinus fruiting bodies under the bark at start
[12] = system: Fusarium oxysporum; assay: Banana plantation foliar spray trial (Example 7); format: in vivo; conditions: 0.03% w/v foliar spray, seven affected banana plants (cv Lady Finger); no change in water-sprayed control
Experimental: On a banana (Musa) plantation in Queensland, banana plants (cv Lady Finger) were identified to be affected with Fusarium oxysporum (an ascomycete fungus). Vascular colourisation was seen where the fungus had colonised. A trial using foliar sprays was used. TMT supplied in a 15% aqueous solution diluted in rainwater at 1 in 500 (10 ml/5 L), namely in 0.03% w/v aqueous solution was used for the foliar spraying of seven affected banana plants.

[13] = system: mango (Mangifera indica) trees (cv Kensington Pride); assay: Mango early flowering and fruiting, foliar spray (Example 8); format: in vivo; conditions: 0.03% w/v
Experimental: These mango trees are in rocky poor soil, that is not irrigated.
On 28 Jun. 2019, TMT supplied in a 15% aqueous solution diluted in rainwater at 1 in 500 (10 ml/5 L), namely in 0.03% w/v aqueous solution was applied by foliar spraying.

[14] = system: Macadamia tree; assay: Macadamia tree foliar spray, early flowering; format: in vivo
Text: On the same property as in Example 8, a Macadamia tree was also foliar sprayed on 28 Jun.

[15] = system: Native pine trees (Auracaria spp.); assay: Native pine trees spray; format: in vivo; conditions: sprayed 28 Jun. 2019
Text: Native pine trees (Auracaria spp.) of differing varieties, also on the same property as in Example 8, were also sprayed on the 28 Jun.

[16] = system: blue grass, couch, Rhodes and turf grasses; assay: Grass trials (die back); format: in vivo
Experimental: Trials were performed on grazing land, a football field, a house front lawn with controls and on golf course couch greens. In all trials on soil with spray application (50 L/50 m^2) relative to controls with water only or TMT+humate solution applied in zeolite or in biochar+/− TMT and humate, 1 kg/10 m^2 with 40 L of solution/T of absorbent.

[17] = system: Araucaria, Cassia and Bauhinia, Grevillea; assay: Tree trials, spraying; format: in vivo; conditions: 0.03% w/v spray; after a few weeks of spraying
[18] = system: blue gum, spotted gum, blood wood, lemon scented gum, Moreton Bay ash and Corymbia costata; assay: Additional Eucalypt trials, bark spray; format: in vivo, Eucalypts; conditions: bark sprayed; drought conditions, Phytophthora in the soil
Experimental: Additional trials were also carried out on Eucalypts other than that described in Example 3.
Under current drought conditions and the presence of Phytophthora in the soil, all of the additional trees we trialled looked close to death. The bark of all the following trees were sprayed viz. blue gum, spotted gum, blood wood, lemon scented gum, Moreton Bay ash and Corymbia costata.

[19] = system: hemp, macadamias, grapes, citrus (mandarins) and capsicum; assay: Various other crop trials, spraying; format: in vivo; conditions: 0.03% w/v spray
[20] = system: Phellinus spp.; assay: Contact kill of soil borne fungal pathogens; format: cell-based; conditions: TMT diluted with water
Text: (§1) TMT diluted with water kills the soil borne fungal pathogens, Phytothphora cinnamomi, Pithium spp., and Phellinus spp. on contact.

[21] = system: Phytothphora cinnamomi; assay: Contact kill of soil borne fungal pathogens; format: cell-based; conditions: TMT diluted with water
Text: as §1

[22] = system: Pithium spp.; assay: Contact kill of soil borne fungal pathogens; format: cell-based; conditions: TMT diluted with water
Text: as §1

[23] = system: other soil microbes including other pathogens, fungi, bacteria as well as other soil or water borne biota; assay: Toxicity to other soil microbes and biota; conditions: TMT diluted with water
[24] = system: insects, annelids, crustaceans, molluscs, arachnids, birds and animals; assay: Observed effect on other small organisms, birds and animals; format: in vivo; conditions: TMT diluted with water as in the embodiments and examples
Text: The LD-50 for the rat is 2× the body mass of the rat, so it would drown before dying by ingestion.

[25] = system: rat; conditions: ingestion; cited from earlier work
[26] = aqueous solution and foliar and stem spraying as in Example 5
[27] = thirty-six days, without watering or fertilizer since spraying

Sc1nc(S)nc(S)n1 [TMT, 1,3,5-Triazinane-2,4,6-Trithione]
indications of new growth ([1]; 0.0375% w/v aqueous solution, 20 L per tree sprayed to soil beneath two trees, within one week of spraying): marked new growth | feeder roots examined ([1]; 0.0375% w/v, soil spray, about seven and a half months after spraying): healthy feeder roots and earthworms were found | growth in size more than the surrounding trees ([1]; 0.0375% w/v, soil spray, within four months): 20-25% | appearance of treated trees versus surrounding trees ([1]; 0.0375% w/v, soil spray, within seven weeks of spraying): significantly different to the surrounding trees | shoot and root formation on treated grass sample [2]: shoots and roots formed thereon | new shoots and leaf growth [3]: new shoots from branch axils and new leaf growth appeared | functionality to stimulate growth [4]: increased synergistically | development of spores that break out of sporangias ([5]; 15% aqueous solution diluted at 1:500): do not develop | effect on Phytophthora ([5]; 15% aqueous solution diluted at 1:500 (10 ml/5 L), avocado soil with Phytophthora): kills and stops lifecycle of Phytophthora | effect on Phellinus in samples [6]: appeared to have been killed | effect on Pithium in samples [7]: appeared to have been killed | effect on fungal pathogen [8]: killed | growth response ([9]; 0.03% w/v, foliar and stem spray, one to three sprays, response in order of the number of sprays): extraordinary | fruit harvested, greater in mass for each additional spray ([9]; 0.03% w/v, foliar and stem spray, per additional spray): 10% | leaves in number and size, flower spikes and fruit set ([9]; 0.03% w/v, one to three sprays, relative to order of number of sprays): followed suit | fruit sweetness ([9]; observed but not measured): sweeter with increased spraying | brix (sugar content measurement) higher than the control trees [10, 26]: approximately 10% | fruit sweetness [10, 26]: noticeably sweeter | disease and insect predators versus surrounding trees ([10]; spraying as in Example 5): much less disease and fewer insect predators | leaves of treated trees versus surrounding trees ([10]; spraying as in Example 5): bigger brighter green leaves | frost damage ([10]; unseasonal frost, nearby unsprayed trees were subject to frost damage): not affected by an unseasonal frost | effect on fungal pathogen [11]: killed | success on killing off the fungus on affected plants [12]: 100% | flowering ([13]; single foliar spray 28 Jun. 2019, within two weeks, normal flowering end of August): coming into flower | flower maturation and fruit set ([13]; by 3 Aug. 2019, some thirty-six days from spraying): the initiated flowers had matured, and the setting of fruit had commenced | flowering ([13]; by 18 July, some three weeks after spraying): continue showing flowering | fruit growth ([13]; by 28 Sep. 2019, some ninety-six days from spraying): growing apace | new flowering [13, 27]: abundance of new flowering | signs of stress [13, 27]: not showing any signs of stress | flowering ([14]; 0.03% w/v foliar spray 28 Jun. 2019, after about two weeks, normally flowers in late August): came into flower | flowering ([14]; 0.03% w/v, after three weeks): continued to produce flowers | flower maturation and fruit (nut) set ([14]; 0.03% w/v, by 3rd August, some thirty-six days after spraying): the flowers have matured and the setting of fruit(nut) has commenced | fruit growth ([14]; 0.03% w/v, by 28 Sep. 2019, some ninety-six days from spraying): growing apace | new growth out of season [15]: gone into new growth | dry matter, mass relative to the control ([16]; 0.03% w/v spray): 200% +/−4 | effect on mite infection ([16]; 0.03% w/v spray): overturned the mite infection | treatment of grass die back from Phellinus and Pithium ([16]; 0.03% w/v spray, range of grass species, cause uncertain due to mealy bug): successful | time until dead patches were resolved completely ([16]; spray 50 L/50 m^2 on grazing land, house front lawn, golf course couch greens, except the football field (chlorinated town water)): 10 to 14 days | growth of trees showing poor growth [17]: marked improvement with growth | response of trees close to death [18]: slow but consistent response, with epicormic buds appearing on the tree trunks, under the bark and new leaves appearing on apparently dead branches | growth of crop plants [19]: improvement of growth | kill on contact [20]: kills | kill on contact [21]: kills | kill on contact [22]: kills | toxicity to other soil microbes and biota [23]: not to be toxic | effect on other small organisms, birds and animals [24]: benign | LD-50 [25]: 2 × the body mass of the rat
